In patent EP1282725B1, “METHODS OF MODULATING FUNCTIONS OF POLYPEPTIDE GalNAc TRANSFERASES AND OF SCREENING SUBSTANCES THEREFOR” (Glycozym ApS, priority 2000, dated 2001):

How the values were obtained:
GalNAc-T3 = experiment: Inhibition of GalNAc-T3 activities with EA2 acceptor substrate; format: biochemical, human; settings: for Activity in the presence of inhibitors: inhibitors 230 mM, EA2 acceptor
Description: (§1) Products were quantified by scintillation counting after chromatography on Dowex-1, octadecyl silica cartridges (Bakerbond), or HPLC (PC3.2/3 or mRPC C2/C18 SC2.1/10 Pharmacia, Smart System). […] Glycopeptides were purified on Supelclean LC-18 columns (1 ml, Supelco), and the number of GalNAc residues incorporated evaluated by MALDI-TOF mass spectrometry. The enzyme sources used were semipurified as previously described by successive sequential ion-exchange chromatographies on Amberlite (IRA95, Sigma) or DEAE Sephacel (Pharmacia), S-Sepharose Fast Flow (Pharmacia), and Mini-S^TM (PC 3.2/3, Pharmacia) using the Smart System (Pharmacia) (28). Secreted GalNAc-T4 was obtained from a stably transfected CHO line ([…]) (8) grown in roller bottles in HAMS F12 supplemented with 10 % Fetal Bovine Serum. The experiments illustrated in Fig. 1 was performed with recombinant secreted GalNAc-T4 obtained from a stably transfected CHO line (8). Experiments illustrated in Figs. 2 and 3 were performed with secreted GalNAc-T4 expressed in High Five cells grown in serum-free medium (8). Structural analysis of glycopeptides were performed by a combination of PFPA (pentafluoropropionic acid) hydrolysis and MALDI-TOF mass spectrometry as previously described (40). Secreted GalNAc-T7 was obtained from infected High Five^TM cells grown in serum-free medium (Invitrogen) in upright roller bottles shaken 140 rpm in waterbaths at 27 °C. GalNAc-T7 was not purified by Mini-S as the yields from cationic chromatography were low due to its low pI (6.4). […] Galactosyl transferring activities of GalNAc-T1, -T2, and -T3, were assayed with a panel of acceptor peptides in standard reaction mixtures containing 100 μM UDP-Gal instead of UDP-GalNAc.

GalNAc-T2 [1] = experiment: Inhibition of GalNAc-T2 activities with Muc2 acceptor substrate; format: biochemical, human; settings: for Activity in the presence of inhibitors: inhibitors 230 mM, Muc2 acceptor
Description: as §1

GalNAc-T4 [2] = experiment: Inhibition of the glycosylation dependent (GalNAc-glycopeptide) activity of GalNAc-T4, time-course MALDI-TOF; format: biochemical, human
Description: (§2) MALDI-TOF time-course in terminal reactions were performed in reactions of 25 µl containing 2.5 nmol acceptor (glyco)peptide, 40 nmol UDP-GalNAc, and 0.4 µg GalNAc-T4. Sampling of reactions (1 µl) were purified by nano-scale reversed-phase chromatography (Poros R3, PerSeptive Biosystem) and applied directly to the probe with matrix (41). The amount of GalNAc-transferase added was adjusted so that the reaction with the appropriate peptide was near completion in six hours. Reactions were incubated at 37°C in a shaker bath. At times 0, 2 hours, and 16 hours a 1 µl aliquot was taken and purified. Mass spectra were acquired on either Voyager-DE mass spectrometer equipped with delayed extraction (Perseptive Biosystem Inc.). The matrix used was 2,5-dihydroxybenzoic acid (10 mg/ml, Hewlett-Packard) dissolved in a 2:1 mixture of 0.1% trifluoroacetic acid in 30 % aqueous acetonitrile (Rathburn Ltd.).
Quantification of purified proteins was done by Coomassie stained SDS-PAGE and titration of immunoreactivity with the monoclonal antibody, UH6(4G2) (8). […] Wild-type GalNAc-T4 and mutant GalNAc-T4, GalNAc-T4^459H, were analysed with unglycosylated peptides (represented by PSGL-1) or GalNAc glycosylated glycopeptides (represented by GalNAc3TAP25V21) in reactions of 25 µl containing 2.5 nmol acceptor (glyco)peptide, 40 nmol UDP-GalNAc, and 0.4 µg GalNAc-T4. Time-course assays were motioned by MALDI-TOF. Sampling of reactions (1 µl) were purified by nano-scale reversed-phase chromatography (Poros R3, PerSeptive Biosystem) and applied directly to the probe with matrix. Evaluation of inhibition of the glycopeptide specificity of wild-type GalNAc-T4 with free sugars was performed to establish if the lectin domain recognized carbohydrate. […] Further, analysis was performed with 10 mM α-D-GalNAc-1-benzyl, αGlcNAc-benzyl, and fully occupied GalNAc-glycopeptide, GalNAc6TAP25, at 5 mM.

GalNAc-T4 [3] = experiment: Direct binding to free GalNAc, conventional binding assays; set-up: species or system human
[4] = tested on: GalNAc-T4^459D or -T4^459H; experiment: Glycosylation independent activity of GalNAc-T4 wild-type and lectin mutant with naked peptides, MALDI-TOF; format: biochemical, human; settings: naked peptides (PSGL-1); free sugars
Description: as §2
Quantification of purified proteins was done by Coomassie stained SDS-PAGE and titration of immunoreactivity with the monoclonal antibody, UH6(4G2) (8). […] Wild-type GalNAc-T4 and mutant GalNAc-T4, GalNAc-T4^459H, were analysed with unglycosylated peptides (represented by PSGL-1) or GalNAc glycosylated glycopeptides (represented by GalNAc3TAP25V21) in reactions of 25 µl containing 2.5 nmol acceptor (glyco)peptide, 40 nmol UDP-GalNAc, and 0.4 µg GalNAc-T4. […]

GalNAc-T2 [5] = experiment: Direct binding to free GalNAc, conventional binding assays; set-up: species or system human
GalNAc-T7 = experiment: Inhibition of GalNAc-T7 activity with GalNAc2-3EA2 substrate; format: biochemical, human; settings: for inhibition of the activity of GalNAc-T7 with GalNAc2-3EA2: 5 mM concentrations; for Activity in the presence of inhibitors: inhibitors 5 mM, GalNAc2-3EA2 substrate, without inhibitor 6.8
Description: Standard reaction mixtures (50 µl final volume) contained 25 mM cocadylate (pH 7.4), 10 mM MnCl2, 0.25% Triton X-100, 200 µM UDP-[^14C]-GalNAc (2,000 cpm/nmol) (Amer-sham), 200-500 µM acceptor peptides. Products were quantified by scintillation counting after chromatography on Dowex-1, octadecyl silica cartridges (Bakerbond), or HPLC (PC3.2/3 or mRPC C2/C18 SC2.1/10 Pharmacia, Smart System). […] Glycopeptides were purified on Supelclean LC-18 columns (1 ml, Supelco), and the number of GalNAc residues incorporated evaluated by MALDI-TOF mass spectrometry. The enzyme sources used were semipurified as previously described by successive sequential ion-exchange chromatographies on Amberlite (IRA95, Sigma) or DEAE Sephacel (Pharmacia), S-Sepharose Fast Flow (Pharmacia), and Mini-S™ (PC 3.2/3, Pharmacia) using the Smart System (Pharmacia) (28). Secreted GalNAc-T4 was obtained from a stably transfected CHO line (CHO/GalNA-T4/21A) (8) grown in roller bottles in HAMS F12 supplemented with 10 % Fetal Bovine Serum. The experiments illustrated in Fig. 1 was performed with recombinant secreted GalNAc-T4 obtained from a stably transfected CHO line (8). Experiments illustrated in Figs. 2 and 3 were performed with secreted GalNAc-T4 expressed in High Five cells grown in serum-free medium (8). Structural analysis of glycopeptides were performed by a combination of PFPA (pentafluoropropionic acid) hydrolysis and MALDI-TOF mass spectrometry as previously described (40). Secreted GalNAc-T7 was obtained from infected High Five™ cells grown in serum-free medium (Invitrogen) in upright roller bottles shaken 140 rpm in waterbaths at 27 °C. GalNAc-T7 was not purified by Mini-S as the yields from cationic chromatography were low due to its low pI (6.4).
GalNAc-T7 activity was analysed with GalNAc glycosylated glycopeptides (represented by GalNAc2-3EA2 (7)) in reactions of 25 µl containing 2.5 nmol acceptor (glyco)peptide, 40 nmol UDP-GalNAc, and purified GalNAc-T7. […] Further, analysis was performed with 10 mM α-D-GalNAc-1-benzyl, αGlcNAc-benzyl, and fully occupied GalNAc-glycopeptide, GalNAc6TAP25, at 5 mM.

[6] = donor UDP-Gal, without inhibitor 6.3
[7] = donor UDP-GalNAc, without inhibitor 34
[8] = donor UDP-Gal, without inhibitor 90
[9] = donor UDP-GalNAc, without inhibitor 340
[10] = […] free sugars, GalNAc3TAP25V21 glycopeptide substrate

Structure (SMILES)	Activity in the presence of inhibitors (GalNAc-T3; [6]) [nmol/min/mL]	Activity in the presence of inhibitors (GalNAc-T3; [7]) [nmol/min/mL]	Activity in the presence of inhibitors (GalNAc-T2 [1]; [8]) [nmol/min/mL]	Activity in the presence of inhibitors (GalNAc-T2 [1]; [9]) [nmol/min/mL]	inhibition of the glycosylation dependent specificity of GalNAc-T4 (GalNAc-T4 [2]; [10])	inhibition of the activity of GalNAc-T7 with GalNAc2-3EA2 (GalNAc-T7)	Activity in the presence of inhibitors (GalNAc-T7) [nmol/min/mL]	other results
C[C@@H]1OC(O)[C@@H](O)[C@H](O)[C@@H]1O (stereo partly shown) [Fuc]	6.5	34	89	370	failed to show significant inhibition	–	–	–
CC(=O)N[C@H]1C(O)O[C@H](CO)[C@H](O)[C@@H]1O (stereo partly shown) [GalNAc, N-acetylgalactosamine]	2.5	35	24	300	–	–	–	direct binding of GalNAc-T4 to free GalNAc (GalNAc-T4 [3]): could not detect direct binding; effect on the glycosylation independent activities of GalNAc-T4 [4]: no effect on the general catalytic function of the enzyme; inhibition of the galactosyltransferase activity of GalNAc-T3 (GalNAc-T3; donor UDP-Gal): selectively inhibited; inhibition of the galactosyltransferase activity with Muc2 substrate (GalNAc-T2 [1]; donor UDP-Gal): selectively inhibited; direct binding of GalNAc-T2 to free GalNAc (GalNAc-T2 [5]): could not detect direct binding; inhibition of the glycosylation dependent specificity of GalNAc-T4 (GalNAc-T4 [2]; 50 mM sugars (not shown)): approximately 50%
OC[C@H]1OC(O)[C@H](O)[C@@H](O)[C@H]1O (stereo partly shown) [Gal]	7.3	33	89	300	failed to show significant inhibition	–	–	–
CC(=O)N[C@H]1[C@@H](OCc2ccccc2)O[C@H](CO)[C@H](O)[C@@H]1O[C@@H]1O[C@H](CO)[C@H](O)[C@H](O)[C@H]1O [Galβ1-3GaINAcα1-bz, Galβ1-3GalNAcα1-benzyl]	–	–	–	–	–	significantly inhibited	4.5	inhibition of GalNAc-T4 glycopeptide activity compared to GalNAc (GalNAc-T4 [2]; concentration not given): neither Gal nor Galβ1-3GalNAcα1-benzyl produced significant inhibition
CC(=O)N[C@H]1C(O)O[C@H](CO)[C@@H](O)[C@@H]1O (stereo partly shown) [GlcNAc]	7	32	68	310	failed to show significant inhibition	–	–	–
CC(=O)N[C@H]1[C@@H](OCc2ccccc2)O[C@H](CO)[C@H](O)[C@@H]1O [bz-αGalNAc, α-D-GalNAc-1-benzyl]	–	–	–	–	–	significantly inhibited	5.4	–
OC[C@H]1O[C@H](OCc2ccccc2)[C@@H](O)[C@@H](O)[C@@H]1O [bz-αMan]	–	–	–	–	–	–	6.7	–
OC[C@H]1O[C@@H](OCc2ccccc2)[C@H](O)[C@@H](O)[C@H]1O [bz-βGal]	–	–	–	–	–	significantly inhibited	4.7	–
CC(=O)N[C@H]1[C@@H](OCc2ccccc2)O[C@H](CO)[C@@H](O)[C@@H]1O [αGlcNAc-benzyl]	–	–	–	–	–	–	–	inhibition of the glycosylation dependent specificity of GalNAc-T4 (GalNAc-T4 [2]; 10 mM benzyl glycoside): did not inhibit catalytic activity
